# According to patent publication US10253052B2, “HBED-bisphosphonates, radiometal conjugates and their use as theranostic agents” (Five Eleven Pharma Inc., priority 2015, dated 2019):
# Key:
# [1] = In vitro binding to hydroxyapatite; conditions: 20 mg hydroxyapatite in saline, 10 min at room temperature
# Protocol: Hydroxyapatite (20 mg, Sigma-Aldrich, reagent grade powder) was incubated in isotonic saline (1 mL) for 24 h. Subsequently, either ^68Ga labeled 1a-h, 2, 3, BPAMD, or [^18F]NaF (1 μCi) was added to the hydroxyapatite suspension. After vortexing for 10 seconds, the suspension was incubated for 10 min at room temperature. The samples were then centrifuged at 10,000 rpm for 3 min and the supernatant was removed. The hydroxyapatite fraction was washed twice with saline (1 mL). Radioactivity in the combined supernatants and the hydroxyapatite fraction was measured using a gamma counter. The proportion of the ^68Ga complex binding to hydroxyapatite was determined as percent of ^68Ga absorbed to hydroxyapatite.
# [2] = In vivo biodistribution in mice; parameters: species or system normal CD-1 male mice; conditions: for bone to blood ratio / bone to muscle ratio / Biodistribution: Blood / Biodistribution: Bone / Biodistribution: Brain / Biodistribution: Heart / Biodistribution: Kidney / Biodistribution: Liver / Biodistribution: Lung / Biodistribution: Muscle / Biodistribution: Pancreas / Biodistribution: Skin / Biodistribution: Spleen: iv
# Protocol: Biodistribution experiments were performed by intravenously administering ^68Ga labeled 1a-h, 2, 3, BPAMD, and [^18F]NaF into normal, healthy male CD-1 mice (25-30 g). The injection activity was 20-30 μCi/animal. […] Organs of interest were harvested, weighed, and counts of radioactivity were measured by a gamma counter. The biodistribution of each sample was calculated as a percentage of the injected dose per gram of wet tissue weight (% ID/g). Tibia and femur bones were harvested and counted as bone samples.
structure (smiles),measurement,setting,value
O=C([O-])CN(CCN(CC(=O)[O-])Cc1cc(CCC(=O)NC(P(=O)(O)O)P(=O)(O)O)ccc1[O-])Cc1cc(CCC(=O)NCCCNC(=O)CCc2ccc(O)c(CN(CCN(CC(=O)O)Cc3cc(CCC(=O)NC(P(=O)(O)O)P(=O)(O)O)ccc3O)CC(=O)O)c2)ccc1[O-].[68Ga+3] [[^68Ga]3],Hydroxyapatite Binding (%),[1],95.8 ± 0.1%
same,bone to blood ratio,[2]; 2 min,0.5
same,bone to muscle ratio,[2]; 2 min,2.6
same,Biodistribution: Blood,[2]; 2 min post injection,8.33 ± 0.23 % dose/g
same,Biodistribution: Bone,[2]; 2 min post injection,4.17 ± 0.35 % dose/g
same,Biodistribution: Brain,[2]; 2 min post injection,0.28 ± 0.03 % dose/g
same,Biodistribution: Heart,[2]; 2 min post injection,3.45 ± 0.25 % dose/g
same,Biodistribution: Kidney,[2]; 2 min post injection,12.2 ± 1.51 % dose/g
same,Biodistribution: Liver,[2]; 2 min post injection,19.7 ± 1.05 % dose/g
same,Biodistribution: Lung,[2]; 2 min post injection,71.6 ± 6.33 % dose/g
same,Biodistribution: Muscle,[2]; 2 min post injection,1.62 ± 0.47 % dose/g
same,Biodistribution: Pancreas,[2]; 2 min post injection,1.73 ± 0.08 % dose/g
same,Biodistribution: Skin,[2]; 2 min post injection,1.24 ± 0.01 % dose/g
same,Biodistribution: Spleen,[2]; 2 min post injection,12.8 ± 4.35 % dose/g
same,bone to blood ratio,[2]; 30 min,4.8
same,bone to muscle ratio,[2]; 30 min,14
same,Biodistribution: Blood,[2]; 30 min (0.5 hr) post injection,1.92 ± 0.15 % dose/g
same,Biodistribution: Bone,[2]; 30 min (0.5 hr) post injection,9.26 ± 1.45 % dose/g
same,Biodistribution: Brain,[2]; 30 min (0.5 hr) post injection,0.06 ± 0.01 % dose/g
same,Biodistribution: Heart,[2]; 30 min (0.5 hr) post injection,2.02 ± 0.97 % dose/g
same,Biodistribution: Kidney,[2]; 30 min (0.5 hr) post injection,17.1 ± 0.70 % dose/g
same,Biodistribution: Liver,[2]; 30 min (0.5 hr) post injection,9.86 ± 0.66 % dose/g
same,Biodistribution: Lung,[2]; 30 min (0.5 hr) post injection,15.6 ± 1.39 % dose/g
same,Biodistribution: Muscle,[2]; 30 min (0.5 hr) post injection,0.68 ± 0.09 % dose/g
same,Biodistribution: Pancreas,[2]; 30 min (0.5 hr) post injection,1.07 ± 1.04 % dose/g
same,Biodistribution: Skin,[2]; 30 min (0.5 hr) post injection,1.10 ± 0.18 % dose/g
same,Biodistribution: Spleen,[2]; 30 min (0.5 hr) post injection,8.33 ± 2.22 % dose/g
same,bone to blood ratio,[2]; 60 min,13
same,bone to muscle ratio,[2]; 60 min,16
same,Biodistribution: Blood,[2]; 60 min (1 hr) post injection,0.70 ± 0.13 % dose/g
same,Biodistribution: Bone,[2]; 60 min (1 hr) post injection,9.26 ± 1.13 % dose/g
same,Biodistribution: Brain,[2]; 60 min (1 hr) post injection,0.06 ± 0.01 % dose/g
same,Biodistribution: Heart,[2]; 60 min (1 hr) post injection,1.16 ± 0.13 % dose/g
same,Biodistribution: Kidney,[2]; 60 min (1 hr) post injection,7.99 ± 1.08 % dose/g
same,Biodistribution: Liver,[2]; 60 min (1 hr) post injection,23.5 ± 3.13 % dose/g
same,Biodistribution: Lung,[2]; 60 min (1 hr) post injection,41.3 ± 5.15 % dose/g
same,Biodistribution: Muscle,[2]; 60 min (1 hr) post injection,0.57 ± 0.14 % dose/g
same,Biodistribution: Pancreas,[2]; 60 min (1 hr) post injection,0.26 ± 0.02 % dose/g
same,Biodistribution: Skin,[2]; 60 min (1 hr) post injection,0.41 ± 0.02 % dose/g
same,Biodistribution: Spleen,[2]; 60 min (1 hr) post injection,10.3 ± 2.65 % dose/g
same,bone to blood ratio,[2]; 120 min,29
same,bone to muscle ratio,[2]; 120 min,39
same,Biodistribution: Blood,[2]; 120 min post injection,0.37 ± 0.07 % dose/g
same,Biodistribution: Bone,[2]; 120 min post injection,10.6 ± 0.85 % dose/g
same,Biodistribution: Brain,[2]; 120 min post injection,0.05 ± 0.01 % dose/g
same,Biodistribution: Heart,[2]; 120 min post injection,1.05 ± 0.11 % dose/g
same,Biodistribution: Kidney,[2]; 120 min post injection,8.99 ± 0.20 % dose/g
same,Biodistribution: Liver,[2]; 120 min post injection,25.4 ± 2.80 % dose/g
same,Biodistribution: Lung,[2]; 120 min post injection,34.8 ± 1.90 % dose/g
same,Biodistribution: Muscle,[2]; 120 min post injection,0.28 ± 0.04 % dose/g
same,Biodistribution: Pancreas,[2]; 120 min post injection,0.25 ± 0.03 % dose/g
same,Biodistribution: Skin,[2]; 120 min post injection,0.33 ± 0.06 % dose/g
same,Biodistribution: Spleen,[2]; 120 min post injection,15.7 ± 1.59 % dose/g
same,"Biodistribution result in words (organ uptake, retention, excretion)",[2]; normal mice after iv injection,high liver uptake and less bone localization
